A compilation of properties of binary mixtures (doi:10.1021/acs.iecr.0c01496)

Experiment: xn = mol fraction of the nth substance listed
Conditions: 101 kPa

CCCC[n+]1ccccc1.[Cl-] + CCCC[n+]1ccccc1.[Br-]
viscosity [mPa·s]
Conditions | 398.1 K | 403.1 K | 408.1 K | 413.1 K | 418.1 K | 423.1 K | 428.1 K | 433.1 K | 438.1 K | 443.1 K
x1 = 0.084 | – | – | 22.9 | 19.4 | 16.6 | – | 12.56 | 11.09 | 9.91 | 8.95
x1 = 0.169 | 33.5 | 27.8 | 23.3 | 19.7 | – | 14.63 | 12.79 | 11.3 | – | 9.1
x1 = 0.292 | 33.8 | 28.1 | 23.6 | 20 | 17.2 | 14.84 | 12.97 | – | 10.22 | 9.22
x1 = 0.389 | – | 28.5 | – | 20.3 | – | 15.07 | 13.18 | 11.63 | 10.37 | 9.35
x1 = 0.469 | – | 29.1 | 24.5 | 20.9 | 18 | 15.61 | 13.69 | 12.13 | – | 9.81
x1 = 0.611 | – | – | 25.1 | 21.4 | 18.4 | 16.03 | 14.06 | 12.46 | 11.15 | 10.07
x1 = 0.689 | – | – | – | 21.5 | – | 16.11 | 14.13 | 12.51 | 11.17 | 10.08
x1 = 0.785 | – | – | – | 21.9 | 18.9 | 16.43 | – | 12.76 | 11.41 | 10.29
x1 = 0.892 | – | – | – | – | – | – | 14.84 | – | – | 10.63

CCCC[n+]1ccccc1.[Cl-] + CC[n+]1ccccc1.[Br-]
viscosity [mPa·s]
Conditions | x2 = 0.104 | x2 = 0.193 | x2 = 0.313 | x2 = 0.408 | x2 = 0.484 | x2 = 0.604 | x2 = 0.64 | x2 = 0.694 | x2 = 0.797 | x2 = 0.894
368.1 K | – | – | – | – | 56.3 | 46 | 43.6 | 39.7 | – | –
373.1 K | – | – | – | – | 47.7 | 39.5 | 37.6 | 34.5 | – | –
378.1 K | – | – | – | – | 40.7 | 34.1 | 32.6 | 30.1 | 26 | –
383.1 K | – | – | – | 38.5 | 34.8 | 29.6 | 28.3 | 26.3 | 23 | –
388.1 K | – | – | – | 32.9 | – | 25.7 | 24.7 | – | 20.4 | –
393.1 K | – | 36 | 31.5 | 28.3 | 25.9 | 22.5 | – | 20.4 | – | 16.16
398.1 K | – | 30.5 | 27 | 24.4 | 22.5 | 19.7 | 19 | 18.01 | 16.16 | 14.53
403.1 K | 28.4 | 26.1 | 23.3 | – | 19.7 | – | 16.77 | 15.99 | 14.46 | 13.09
408.1 K | 24.4 | 22.4 | 20.2 | 18.5 | 17.27 | 15.38 | – | 14.24 | – | 11.82
413.1 K | 21 | – | 17.7 | 16.27 | 15.24 | 13.66 | – | – | – | 10.69
418.1 K | – | 16.98 | 15.51 | 14.37 | 13.52 | 12.2 | – | – | 10.53 | 9.7
423.1 K | 16.01 | 14.92 | – | 12.77 | 12.04 | 10.92 | 10.59 | 10.27 | – | –
428.1 K | 14.14 | 13.22 | – | 11.41 | 10.79 | – | 9.53 | – | 8.64 | 8.01
433.1 K | 12.59 | 11.8 | 10.96 | 10.25 | – | 8.86 | – | 8.41 | 7.85 | 7.31
438.1 K | 11.29 | 10.6 | 9.89 | 9.26 | 8.8 | – | 7.81 | 7.65 | 7.17 | –
443.1 K | 10.22 | 9.6 | 8.97 | 8.42 | 8.01 | 7.32 | – | 6.98 | – | 6.11

CC[n+]1ccccc1.[Cl-] + CC[n+]1ccccc1.[Br-]
viscosity [mPa·s]
Conditions | 403.1 K | 408.1 K | 413.1 K | 418.1 K | 423.1 K | 428.1 K | 433.1 K | 438.1 K | 443.1 K
x1 = 0.105 | 12.65 | 11.56 | 10.55 | 9.63 | 8.8 | 8.05 | 7.39 | 6.82 | 6.34
x1 = 0.196 | 12.66 | 11.53 | 10.51 | – | – | 7.97 | 7.31 | 6.75 | 6.27
x1 = 0.303 | 12.66 | – | 10.45 | 9.5 | – | – | 7.22 | 6.66 | 6.2
x1 = 0.387 | 12.65 | – | 10.31 | 9.37 | 8.55 | 7.84 | 7.23 | 6.69 | 6.22
x1 = 0.503 | 12.66 | 11.37 | – | 9.28 | 8.45 | 7.74 | – | 6.61 | 6.15
x1 = 0.613 | 12.67 | 11.33 | 10.19 | – | – | 7.65 | 7.05 | – | 6.08
x1 = 0.688 | – | 11.3 | 10.15 | 9.17 | 8.33 | – | 7 | 6.47 | 6.02
x1 = 0.803 | 12.66 | 11.26 | 10.08 | 9.08 | 8.24 | 7.52 | 6.9 | 6.38 | 5.94
x1 = 0.885 | 12.65 | 11.22 | 10.02 | 9.02 | – | 7.44 | 6.83 | 6.32 | 5.88

CC[n+]1ccccc1.[Cl-] + CCCC[n+]1ccccc1.[Cl-]
viscosity [mPa·s]
Conditions | x1 = 0.121 | x1 = 0.198 | x1 = 0.302 | x1 = 0.388 | x1 = 0.504 | x1 = 0.597 | x1 = 0.702 | x1 = 0.795 | x1 = 0.804
363.1 K | – | – | – | – | – | – | – | 58.2 | 57.9
368.1 K | – | – | – | – | – | – | – | 47.6 | 47.5
373.1 K | – | – | – | – | – | – | – | 39.3 | 39.3
378.1 K | – | – | – | – | – | – | – | – | 32.7
383.1 K | – | – | – | – | – | – | – | 27.4 | 27.4
388.1 K | – | – | – | – | – | 28.8 | 25.5 | 23.1 | –
393.1 K | – | – | – | – | – | 24.4 | 21.6 | 19.7 | –
398.1 K | – | – | – | 25.3 | – | 20.7 | – | 16.8 | –
403.1 K | – | – | – | 21.5 | 20.1 | 17.8 | 15.9 | 14.53 | –
408.1 K | – | – | 20.2 | 18.5 | 17.4 | 15.39 | 13.73 | 12.63 | 12.79
413.1 K | – | – | 17.5 | 15.98 | 15.22 | 13.41 | 11.98 | – | 11.23
418.1 K | 17.66 | 17.21 | 15.22 | 13.94 | – | 11.79 | 10.54 | 9.75 | 9.93
423.1 K | 15.42 | 15.14 | 13.36 | – | 11.92 | 10.44 | 9.33 | 8.67 | 8.86
428.1 K | 13.58 | 13.44 | 11.83 | 10.85 | 10.69 | 9.32 | – | – | 7.96
433.1 K | 12.06 | 12.04 | 10.56 | 9.69 | 9.66 | – | 7.5 | 7 | 7.21
438.1 K | 10.81 | 10.88 | – | 8.73 | 8.81 | 7.61 | – | 6.37 | 6.58
443.1 K | 9.77 | 9.92 | 8.64 | 7.94 | – | 6.96 | 6.22 | 5.84 | –
